Measured values taken from PubChem BioAssay (NCI).
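Test compounds were applied to cells in 96-well plates for 48 hours at 5 doses. TGI is the concentration that stops growth completely.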

Tests used:
Test in all cases: DTP human tumour cell line panel, 48 h
[1] = test system: A498 renal
[2] = test system: A549 NSCLC
[3] = test system: CAKI-1 renal
[4] = test system: COLO 205 colon
[5] = test system: HCT-116 colon
[6] = test system: HL-60(TB) leukemia
[7] = test system: HOP-62 NSCLC
[8] = test system: HOP-92 NSCLC
[9] = test system: NCI-H226 lung
[10] = test system: NCI-H460 lung
[11] = test system: SF-539 CNS
[12] = test system: SK-MEL-28 melanoma
[13] = test system: SN12C renal
[14] = test system: SW-620 colon
[15] = test system: TK-10 renal
[16] = test system: RXF 393 renal
[17] = test system: MDA-MB-231 breast
[18] = test system: MDA-MB-435
[19] = test system: NCI/ADR-RES ovarian
[20] = test system: BT-549 breast

SMILES | TGI [1] | TGI [2] | TGI [3] | TGI [4] | TGI [5] | TGI [6] | TGI [7] | TGI [8] | TGI [9] | TGI [10] | TGI [11] | TGI [12] | TGI [13] | TGI [14] | TGI [15] | TGI [16] | TGI [17] | TGI [18] | TGI [19] | TGI [20]
CCN=C(NNc1ccc([N+](=O)[O-])cc1)P(=O)(OC(C)C)OC(C)C | > 100 µM | > 100 µM | > 100 µM | > 100 µM | > 100 µM | > 100 µM | > 100 µM | > 100 µM | > 100 µM | > 100 µM | > 100 µM | > 100 µM | > 100 µM | > 100 µM | > 100 µM | – | – | – | – | –
COC(=O)N1CCc2c(nc(N(C)CCO)[nH]c2=O)C1 | > 100 µM | > 100 µM | > 100 µM | > 100 µM | > 100 µM | > 100 µM | > 100 µM | > 100 µM | > 100 µM | > 100 µM | > 100 µM | > 100 µM | > 100 µM | > 100 µM | > 100 µM | > 100 µM | – | – | – | –
[O-][n+]1onc2c1CCC(=N\O)/C2=N/Nc1ccccc1 | > 100 µM | > 100 µM | > 100 µM | > 100 µM | > 100 µM | > 100 µM | > 100 µM | – | > 100 µM | > 100 µM | > 100 µM | > 100 µM | > 100 µM | > 100 µM | > 100 µM | > 100 µM | > 100 µM | > 100 µM | > 100 µM | –
Cc1ccc2ccccc2c1NC1=NCCO1 | – | > 100 µM | – | > 100 µM | > 100 µM | > 100 µM | > 100 µM | 46.8 µM | 74.5 µM | > 100 µM | > 100 µM | > 100 µM | > 100 µM | > 100 µM | > 100 µM | > 100 µM | > 100 µM | > 100 µM | > 100 µM | –
NC(=O)C(N)=O | > 100 µM | > 100 µM | – | > 100 µM | > 100 µM | > 100 µM | > 100 µM | > 100 µM | – | > 100 µM | > 100 µM | > 100 µM | > 100 µM | > 100 µM | > 100 µM | > 100 µM | – | – | – | –
CC(=O)Nc1ccc(NC(=O)c2c(Cl)c(Cl)c(Cl)c(Cl)c2-c2nc3ccccc3[nH]2)cc1 | > 100 µM | > 100 µM | > 100 µM | 39.8 µM | > 100 µM | 67.6 µM | > 100 µM | 71.7 µM | > 100 µM | > 100 µM | > 100 µM | > 100 µM | > 100 µM | > 100 µM | – | 81.5 µM | – | > 100 µM | – | > 100 µM
c1ccc2c(c1)nc1n2CCCn2ccnc2-1 | > 100 µM | > 100 µM | – | > 100 µM | > 100 µM | 0.597 µM | > 100 µM | > 100 µM | > 100 µM | > 100 µM | > 100 µM | > 100 µM | > 100 µM | > 100 µM | – | > 100 µM | > 100 µM | – | > 100 µM | > 100 µM
CC(C)CC1C(=O)NCCC(NC(=O)C(N)Cc2ccc(O)cc2)C(=O)NC(Cc2ccccc2)C(=O)NC(Cc2ccccc2)NC1=O (stereo not given) | > 100 µM | > 100 µM | > 100 µM | > 100 µM | > 100 µM | > 100 µM | > 100 µM | > 100 µM | > 100 µM | > 100 µM | > 100 µM | > 100 µM | > 100 µM | > 100 µM | > 100 µM | > 100 µM | > 100 µM | > 100 µM | > 100 µM | –
COc1ccc(C2CC(c3ccccc3)=Nc3c(-c4ccccc4)nnn32)cc1 (stereo not given) | > 100 µM | > 100 µM | > 100 µM | > 100 µM | > 100 µM | > 100 µM | > 100 µM | – | > 100 µM | > 100 µM | > 100 µM | – | > 100 µM | > 100 µM | – | – | > 100 µM | > 100 µM | > 100 µM | –
CSc1nc(Cl)c(Br)c(Sc2nc(N)nc3nc[nH]c23)n1 | – | 48.7 µM | 10.2 µM | 33.8 µM | 12.4 µM | 13.3 µM | 8.69 µM | 19.2 µM | 22.3 µM | 20.1 µM | 11.2 µM | 24 µM | – | 25.3 µM | 20.9 µM | – | – | – | – | –
COc1cc(NC(C)=O)ccc1C(=O)N/N=C/c1ccc(Cl)cc1Cl | 61 µM | > 100 µM | > 100 µM | > 100 µM | > 100 µM | > 100 µM | > 100 µM | > 100 µM | > 100 µM | – | > 100 µM | > 100 µM | 64.6 µM | > 100 µM | – | 72.5 µM | – | 56.4 µM | > 100 µM | > 100 µM
COC1CC(OC2C(C)OC(OC3C(C)OC(OC4C(O)CC(O[C@H]5CC[C@@]6(C)C(=CC[C@]7(O)[C@@H]6C[C@@H](OC(=O)/C=C/c6ccccc6)[C@@]6(C)[C@]7(O)CC[C@@]6(O)C(C)=O)C5)OC4C)CC3OC)CC2OC)OC(C)C1O (stereo not given in full) | – | > 6.25 µM | > 6.25 µM | > 6.25 µM | > 6.25 µM | > 6.25 µM | > 6.25 µM | > 6.25 µM | > 6.25 µM | – | > 6.25 µM | – | > 6.25 µM | > 6.25 µM | > 6.25 µM | – | > 6.25 µM | > 6.25 µM | > 6.25 µM | > 6.25 µM
CN(C(=O)C12C3C4C1C1C4(C(=O)C45C6C7C4C4C5C6C74C)C3C12C)C(C)(C)C (stereo not given) | > 100 µM | > 100 µM | > 100 µM | > 100 µM | > 100 µM | 43.2 µM | > 100 µM | > 100 µM | > 100 µM | > 100 µM | > 100 µM | > 100 µM | > 100 µM | > 100 µM | > 100 µM | – | – | – | – | –
CCOC(=O)C(/C=N\C(=S)Nc1ccc(Cl)c(Cl)c1)=C(/O)c1ccccc1 | 20.4 µM | > 100 µM | 84.9 µM | > 100 µM | > 100 µM | > 100 µM | > 100 µM | – | > 100 µM | > 100 µM | – | > 100 µM | > 100 µM | > 100 µM | – | > 100 µM | 90.9 µM | 93.5 µM | > 100 µM | –
